According to patent publication US6737383B1, “Herbicidal oxadiazolidines” (priority 1999, dated 2004):

Experiments:
morningglory = experiment: Test B pre/postemergence morningglory; assay type: in vivo, Ipomoea hederacea; details: for Morningglory plant response rating: scale of 0 to 10 where 0 is no effect and 10 is complete control
Procedure, shortened: (§1)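 Response is a visual 0-to-10 score relative to untreated plants, where 0 means no effect and 10 means complete control, taken twelve to sixteen days after application. Treatments went onto soil at planting and onto foliage of 1- to 4-leaf plants, using a surfactant-containing non-phytotoxic solvent.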

corn = experiment: Test B pre/postemergence corn; assay type: in vivo, Zea mays; details: for Corn plant response rating: scale of 0 to 10 where 0 is no effect and 10 is complete control
Procedure, shortened: as §1

purple nutsedge = experiment: Test B pre/postemergence purple nutsedge; assay type: in vivo, Cyperus rotundus; details: for Nutsedge plant response rating: scale of 0 to 10 where 0 is no effect and 10 is complete control
Procedure, shortened: as §1

crabgrass = experiment: Test B pre/postemergence crabgrass; assay type: in vivo, Digitaria sanguinalis; details: for Crabgrass plant response rating: scale of 0 to 10 where 0 is no effect and 10 is complete control
Procedure, shortened: as §1

sugar beet = experiment: Test B pre/postemergence sugar beet; assay type: in vivo, Beta vulgaris; details: for Sugarbeets plant response rating: scale of 0 to 10 where 0 is no effect and 10 is complete control
Procedure, shortened: as §1

surinam grass = experiment: Test B pre/postemergence surinam grass; assay type: in vivo, Brachiaria decumbens
Procedure, shortened: as §1

giant foxtail = experiment: Test B pre/postemergence giant foxtail; assay type: in vivo, Setaria faberii; details: for Giant foxtail plant response rating: scale of 0 to 10 where 0 is no effect and 10 is complete control
Procedure, shortened: as §1

wheat = experiment: Test B pre/postemergence wheat; assay type: in vivo, Triticum aestivum; details: for Wheat plant response rating: scale of 0 to 10 where 0 is no effect and 10 is complete control
Procedure, shortened: as §1

smallflower flatsedge = experiment: Test B flood test smallflower flatsedge; assay type: in vivo, Cyperus difformis
Procedure, shortened: (§2)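 Each value is a visual injury score relative to controls, with 10 meaning complete control and 0 no effect. Evaluation took place twelve to sixteen days after the 2-leaf-stage plants were treated and kept in the greenhouse.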

blackgrass = experiment: Test B pre/postemergence blackgrass; assay type: in vivo, Alopecurus myosuroides
Procedure, shortened: as §1

velvetleaf = experiment: Test B pre/postemergence velvetleaf; assay type: in vivo, Abutilon theophrasti; details: for Velvetleaf plant response rating: scale of 0 to 10 where 0 is no effect and 10 is complete control
Procedure, shortened: as §1

rice = experiment: Test B flood test rice; assay type: in vivo, Oryza sativa
Procedure, shortened: as §2

duck salad = experiment: Test B flood test duck salad; assay type: in vivo, Heteranthera limosa
Procedure, shortened: as §2

pigweed = experiment: Test B pre/postemergence pigweed; assay type: in vivo, Amaranthus retroflexus; details: for Redroot pigweed plant response rating: scale of 0 to 10 where 0 is no effect and 10 is complete control
Procedure, shortened: as §1

rape = experiment: Test B pre/postemergence rape; assay type: in vivo, Brassica napus; details: for Rape plant response rating: scale of 0 to 10 where 0 is no effect and 10 is complete control
Procedure, shortened: as §1

cocklebur = experiment: Test B pre/postemergence cocklebur; assay type: in vivo, Xanthium strumarium; details: for Cocklebur plant response rating: scale of 0 to 10 where 0 is no effect and 10 is complete control
Procedure, shortened: as §1

[1] = Postemergence, Rate 125 g/ha, scale 0 to 10, 0 is no effect, 10 is complete control
[2] = Preemergence, Rate 62 g/ha, scale 0 to 10 (0 no effect, 10 complete control)
[3] = Rate 500 g/ha, Postemergence, scale 0 to 10, 0 no effect, 10 complete control
[4] = Preemergence, Rate 250 g/ha, scale of 0 to 10 where 0 is no effect and 10 is complete control
[5] = Preemergence, Rate 500 g/ha, scale of 0 to 10 where 0 is no effect and 10 is complete control
[6] = Rate 62 g/ha, Postemergence, scale of 0 to 10 where 0 is no effect and 10 is complete control
[7] = Rate 250 g/ha, Postemergence, scale of 0 to 10 where 0 is no effect and 10 is complete control
[8] = Postemergence (flood test), Rate 125 g/ha, scale 0 to 10, 0 is no effect, 10 is complete control
[9] = Rate 62 g/ha, Postemergence (flood test species), scale of 0 to 10 where 0 is no effect and 10 is complete control
[10] = Rate 62 g/ha, flood test species, Pre-emergence, visual evaluation after twelve to sixteen days
[11] = Rate 125 g/ha, Pre-emergence, flood test species, scale 0 to 10 where 0 is no effect and 10 is complete control
[12] = Rate 250 g/ha, Pre-emergence, flood-test species, scale 0 to 10, 0 is no effect, 10 is complete control
[13] = Rate 500 g/ha, listed under Postemergence (flood test species), scale 0 to 10, 0 no effect, 10 complete control
[14] = Rate 500 g/ha, Pre-emergence, flood test species, scale 0 to 10 (0 no effect, 10 complete control)

SMILES: CC(C)N(C(=O)n1oc(=O)n(C2CCC2)c1=O)c1ccc(F)cc1F [Compound 351]
- Plant response rating, Morningglory (morningglory; [1]): 4
- Plant response rating, Morningglory (morningglory; [2]): 0
- Morningglory plant response rating (0 to 10 scale) (morningglory; Preemergence, Rate 125 g/ha): 0
- Morningglory plant response rating (morningglory; Preemergence, Rate 250 g/ha): 0
- Morningglory plant response rating (morningglory; Preemergence, Rate 500 g/ha): 0
- Morningglory plant response rating (morningglory; Rate 62 g/ha, Postemergence): 3
- Plant response rating, Morningglory (morningglory; [3]): 6
- Plant response rating, Corn (corn; [1]): 0
- Plant response rating, Corn (corn; [2]): 0
- Corn plant response rating (0 to 10 scale) (corn; Preemergence, Rate 125 g/ha): 0
- Corn plant response rating (corn; Preemergence, Rate 250 g/ha): 3
- Corn plant response rating (corn; Preemergence, Rate 500 g/ha): 6
- Corn plant response rating (corn; Rate 62 g/ha, Postemergence): 0
- Plant response rating, Corn (corn; [3]): 0
- Plant response rating, Nutsedge (purple nutsedge; [1]): 0
- Plant response rating, Nutsedge (purple nutsedge; [2]): 0
- Nutsedge plant response rating (0 to 10 scale) (purple nutsedge; Preemergence, Rate 125 g/ha): 0
- Nutsedge plant response rating (purple nutsedge; Preemergence, Rate 250 g/ha): 0
- Nutsedge plant response rating (purple nutsedge; Preemergence, Rate 500 g/ha): 9
- Nutsedge plant response rating (purple nutsedge; Rate 62 g/ha, Postemergence): 0
- Plant response rating, Nutsedge (purple nutsedge; [3]): 0
- Plant response rating, Crabgrass (crabgrass; [1]): 1
- Plant response rating, Crabgrass (crabgrass; [2]): 7
- Crabgrass plant response rating (0 to 10 scale) (crabgrass; Preemergence, Rate 125 g/ha): 10
- Crabgrass plant response rating (crabgrass; Preemergence, Rate 250 g/ha): 10
- Crabgrass plant response rating (crabgrass; Preemergence, Rate 500 g/ha): 10
- Crabgrass plant response rating (crabgrass; Rate 62 g/ha, Postemergence): 0
- Plant response rating, Crabgrass (crabgrass; [3]): 9
- Plant response rating, Sugarbeets (sugar beet; [1]): 0
- Plant response rating, Sugarbeets (sugar beet; [2]): 2
- Sugarbeets plant response rating (0 to 10 scale) (sugar beet; Preemergence, Rate 125 g/ha): 2
- Sugarbeets plant response rating (sugar beet; Preemergence, Rate 250 g/ha): 6
- Sugarbeets plant response rating (sugar beet; Preemergence, Rate 500 g/ha): 8
- Sugarbeets plant response rating (sugar beet; Rate 62 g/ha, Postemergence): 0
- Plant response rating, Sugarbeets (sugar beet; [3]): 2
- Plant response rating, B. signalgrass (surinam grass; [1]): 0
- Plant response rating, B. signalgrass (surinam grass; [2]): 0
- B. signalgrass plant response rating (0 to 10 scale, 0 is no effect, 10 is complete control) (surinam grass; Preemergence, Rate 125 g/ha): 0
- B. signalgrass plant response rating (surinam grass; [4]): 2
- B. signalgrass plant response rating (surinam grass; [5]): 4
- B. signalgrass plant response rating (surinam grass; [6]): 0
- Plant response rating, B. signalgrass (surinam grass; [7]): 0
- Plant response rating, B. signalgrass (surinam grass; [3]): 4
- Plant response rating, Giant foxtail (giant foxtail; [1]): 7
- Plant response rating, Giant foxtail (giant foxtail; [2]): 10
- Giant foxtail plant response rating (0 to 10 scale) (giant foxtail; Preemergence, Rate 125 g/ha): 10
- Giant foxtail plant response rating (giant foxtail; Preemergence, Rate 250 g/ha): 10
- Giant foxtail plant response rating (giant foxtail; Preemergence, Rate 500 g/ha): 10
- Giant foxtail plant response rating (giant foxtail; Rate 62 g/ha, Postemergence): 0
- Plant response rating, Giant foxtail (giant foxtail; [3]): 9
- Plant response rating, Wheat (wheat; [1]): 0
- Plant response rating, Wheat (wheat; [2]): 0
- Wheat plant response rating (0 to 10 scale) (wheat; Preemergence, Rate 125 g/ha): 0
- Wheat plant response rating (wheat; Preemergence, Rate 250 g/ha): 0
- Wheat plant response rating (wheat; Preemergence, Rate 500 g/ha): 2
- Wheat plant response rating (wheat; Rate 62 g/ha, Postemergence): 0
- Plant response rating, Wheat (wheat; [3]): 2
- Plant response rating, S. Flatsedge (smallflower flatsedge; [8]): 6
- S. Flatsedge plant response rating (smallflower flatsedge; [9]): 0
- Plant response rating, S. Flatsedge (0 to 10 scale, 0 is no effect, 10 is complete control) (smallflower flatsedge; [10]): 0
- S. Flatsedge plant response rating (smallflower flatsedge; [11]): 0
- S. Flatsedge plant response rating (smallflower flatsedge; [12]): 0
- Plant response rating, S. Flatsedge (smallflower flatsedge; [13]): 8
- S. Flatsedge plant response rating (smallflower flatsedge; [14]): 0
- Plant response rating, Blackgrass (blackgrass; [1]): 2
- Plant response rating, Blackgrass (blackgrass; [2]): 0
- Blackgrass plant response rating (0 to 10 scale) (blackgrass; Preemergence, Rate 125 g/ha): 2
- Blackgrass plant response rating (blackgrass; [4]): 3
- Blackgrass plant response rating (blackgrass; [5]): 8
- Blackgrass plant response rating (blackgrass; [6]): 0
- Plant response rating, Blackgrass (blackgrass; [7]): 4
- Plant response rating, Blackgrass (blackgrass; [3]): 4
- Plant response rating, Velvetleaf (velvetleaf; [1]): 0
- Plant response rating, Velvetleaf (velvetleaf; [2]): 0
- Velvetleaf plant response rating (0 to 10 scale) (velvetleaf; Preemergence, Rate 125 g/ha): 3
- Velvetleaf plant response rating (velvetleaf; Preemergence, Rate 250 g/ha): 4
- Velvetleaf plant response rating (velvetleaf; Preemergence, Rate 500 g/ha): 5
- Velvetleaf plant response rating (velvetleaf; Rate 62 g/ha, Postemergence): 0
- Plant response rating, Velvetleaf (velvetleaf; [3]): 6
- Plant response rating, Rice (rice; [8]): 0
- Rice plant response rating (rice; [9]): 0
- Plant response rating, Rice (0 to 10 scale, 0 is no effect, 10 is complete control) (rice; [10]): 0
- Rice plant response rating (rice; [11]): 0
- Rice plant response rating (rice; [12]): 0
- Plant response rating, Rice (rice; [13]): 0
- Rice plant response rating (rice; [14]): 0
- Plant response rating, Ducksalad (duck salad; [8]): 0
- Ducksalad plant response rating (duck salad; [9]): 0
- Plant response rating, Ducksalad (0 to 10 scale, 0 is no effect, 10 is complete control) (duck salad; [10]): 0
- Ducksalad plant response rating (duck salad; [11]): 0
- Ducksalad plant response rating (duck salad; [12]): 0
- Plant response rating, Ducksalad (duck salad; [13]): 4
- Ducksalad plant response rating (duck salad; [14]): 0
- Plant response rating, Redroot pigweed (pigweed; [1]): 0
- Plant response rating, Redroot pigweed (pigweed; [2]): 10
- Redroot pigweed plant response rating (0 to 10 scale) (pigweed; Preemergence, Rate 125 g/ha): 10
- Redroot pigweed plant response rating (pigweed; Preemergence, Rate 250 g/ha): 10
- Redroot pigweed plant response rating (pigweed; Preemergence, Rate 500 g/ha): 10
- Redroot pigweed plant response rating (pigweed; Rate 62 g/ha, Postemergence): 0
- Plant response rating, Redroot pigweed (pigweed; [3]): 7
- Plant response rating, Rape (rape; [1]): 0
- Plant response rating, Rape (rape; [2]): 0
- Rape plant response rating (0 to 10 scale) (rape; Preemergence, Rate 125 g/ha): 3
- Rape plant response rating (rape; Preemergence, Rate 250 g/ha): 6
- Rape plant response rating (rape; Preemergence, Rate 500 g/ha): 9
- Rape plant response rating (rape; Rate 62 g/ha, Postemergence): 0
- Plant response rating, Rape (rape; [3]): 5
- Plant response rating, Cocklebur (cocklebur; [1]): 0
- Plant response rating, Cocklebur (cocklebur; [2]): 0
- Cocklebur plant response rating (0 to 10 scale) (cocklebur; Preemergence, Rate 125 g/ha): 0
- Cocklebur plant response rating (cocklebur; Preemergence, Rate 250 g/ha): 0
- Cocklebur plant response rating (cocklebur; Preemergence, Rate 500 g/ha): 0
- Cocklebur plant response rating (cocklebur; Rate 62 g/ha, Postemergence): 0
- Plant response rating, Cocklebur (cocklebur; [3]): 2
